In ChEMBL document CHEMBL3860060, “Discovery and Optimization of 1-Phenoxy-2-aminoindanes as Potent, Selective, and Orally Bioavailable Inhibitors of the Na+/H+ Exchanger Type 3 (NHE3)” (J Med Chem, 2016):

Tests used:
Cytochrome P450 2D6 = Cytochrome P450 2D6 (Homo sapiens, UniProt P10635)
Description: Inhibition of CYP2D6 in pooled human hepatic microsomes using dextromethorphan substrate in presence of NADPH

[1] = Permeability in human Caco2/TC7 cells assessed as total flux at 20 uM incubated for 2 hrs by LC-MS/MS method; type: ADME, cell-based; conditions: Caco-2, read-out: permeability
[2] = target: T1, Sodium/hydrogen exchanger 3 (Homo sapiens, UniProt P48764); assay: Inhibition of human NHE3 expressed in LAP1 cell assessed as intracellular pH recovery measured for 2 mins by CECF-AM dye based FLIPR assay
T1 sequence (P48764 whole entry): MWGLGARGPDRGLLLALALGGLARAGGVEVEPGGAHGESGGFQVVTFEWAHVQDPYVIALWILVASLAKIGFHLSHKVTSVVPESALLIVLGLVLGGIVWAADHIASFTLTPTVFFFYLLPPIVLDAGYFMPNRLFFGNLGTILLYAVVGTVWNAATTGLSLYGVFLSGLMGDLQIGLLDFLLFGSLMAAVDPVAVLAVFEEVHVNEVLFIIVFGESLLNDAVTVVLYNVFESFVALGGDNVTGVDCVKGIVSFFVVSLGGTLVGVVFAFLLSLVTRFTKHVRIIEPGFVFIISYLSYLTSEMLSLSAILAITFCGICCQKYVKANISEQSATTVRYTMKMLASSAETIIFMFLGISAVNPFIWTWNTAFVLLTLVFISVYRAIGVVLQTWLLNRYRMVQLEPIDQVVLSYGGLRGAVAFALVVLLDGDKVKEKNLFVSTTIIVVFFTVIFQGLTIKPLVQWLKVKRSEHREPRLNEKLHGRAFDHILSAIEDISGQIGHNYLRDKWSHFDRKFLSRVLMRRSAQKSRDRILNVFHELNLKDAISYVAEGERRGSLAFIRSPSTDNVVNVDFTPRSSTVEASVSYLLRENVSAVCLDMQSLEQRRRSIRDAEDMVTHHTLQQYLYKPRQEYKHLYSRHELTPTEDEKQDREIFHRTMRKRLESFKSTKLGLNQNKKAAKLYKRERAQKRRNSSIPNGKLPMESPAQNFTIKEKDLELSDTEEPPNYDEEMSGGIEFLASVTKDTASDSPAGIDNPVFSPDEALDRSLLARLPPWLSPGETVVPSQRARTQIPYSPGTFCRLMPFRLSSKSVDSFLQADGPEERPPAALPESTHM

Chain of Cytochrome P450 2D6 (P10635 whole entry): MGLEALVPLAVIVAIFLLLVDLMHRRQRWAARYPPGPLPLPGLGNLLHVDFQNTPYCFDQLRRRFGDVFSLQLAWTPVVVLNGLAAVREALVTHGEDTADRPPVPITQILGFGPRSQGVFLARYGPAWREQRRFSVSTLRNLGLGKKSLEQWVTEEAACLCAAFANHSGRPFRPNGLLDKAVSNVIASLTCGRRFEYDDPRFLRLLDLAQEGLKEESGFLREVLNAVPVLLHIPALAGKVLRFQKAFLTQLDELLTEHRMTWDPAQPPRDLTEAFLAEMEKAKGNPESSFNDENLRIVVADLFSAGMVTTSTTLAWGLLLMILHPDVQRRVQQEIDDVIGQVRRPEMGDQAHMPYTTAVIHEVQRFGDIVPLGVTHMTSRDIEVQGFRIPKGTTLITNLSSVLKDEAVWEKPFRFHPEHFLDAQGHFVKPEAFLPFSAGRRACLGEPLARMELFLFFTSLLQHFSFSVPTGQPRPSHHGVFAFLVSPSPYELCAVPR

Row | SMILES | IC50 (Cytochrome P450 2D6) [nM] | Papp at 2 h, 20 µM [1] [×10⁻⁶ cm/s] | IC50 [2] [nM]
1 | CN1CCN([C@H]2Cc3c(Cl)cc(Cl)cc3[C@@H]2Oc2ccc(S(C)(=O)=O)cc2)CC1 |  |  | 4040
2 | CS(=O)(=O)c1ccc(O[C@H]2c3cc(Cl)cc(Cl)c3C[C@@H]2N2CC[C@H](O)C2)cc1 |  |  | 384
3 | CS(=O)(=O)c1ccc(O[C@H]2c3cc(Cl)cc(Cl)c3C[C@@H]2N2CC(O)C2)cc1 |  |  | 1640
4 | CC(=O)Nc1cccc(O[C@H]2c3ccccc3C[C@@H]2N2CCC[C@@H](N)C2)c1 | 5100 | 0.03 | 440
5 | CS(=O)(=O)c1ccc(O[C@H]2c3cc(Cl)c(Cl)cc3C[C@@H]2N2CCCNCC2)cc1 (racemic) |  |  | 6060
6 | CS(=O)(=O)c1ccc(O[C@H]2c3ccccc3C[C@@H]2N2CCNCC2)cc1 |  |  | 6680
7 | Cc1nnc(C)n1-c1ccc(O[C@H]2c3ccccc3C[C@@H]2N2CCCC2)cc1 |  |  | 345
8 | CS(=O)(=O)c1ccc(O[C@H]2c3ccccc3C[C@@H]2N2CCCC2)cc1 | < 300 | 21.5 | 572
9 | CS(=O)(=O)c1ccc(O[C@H]2c3cc(F)ccc3C[C@@H]2N2CCNCC2)cc1 (racemic) |  |  | 3490
10 | CCN(CC)C(=O)c1ccc(O[C@H]2c3ccccc3C[C@@H]2N2CCCC2)cc1 |  |  | 2070
11 | CS(=O)(=O)c1ccc(O[C@H]2c3ccccc3C[C@@H]2N2CCCC2)c(Cl)c1Cl |  | 19.2 | 540
12 | CS(=O)(=O)c1ccc(O[C@H]2c3cc(Cl)cc(Cl)c3C[C@@H]2N2CC[C@@H](O)C2)cc1 | 2400 | 28.6 | 588
13 | CN1C[C@@H]2CN([C@H]3Cc4c(Cl)cc(Cl)cc4[C@@H]3Oc3ccc(S(C)(=O)=O)cc3)C[C@@H]2C1 | < 300 | 6 | 241
14 | CS(=O)(=O)c1ccc(O[C@H]2c3cc(Cl)cc(Cl)c3C[C@@H]2N2CC[C@H](F)C2)cc1 |  |  | 883
15 | Cc1c(O[C@H]2c3ccccc3C[C@@H]2N2CCCC2)ccc(-n2c(C)nnc2C)c1C |  |  | 170
16 | O=C1CCCN1c1cccc(O[C@H]2c3ccccc3C[C@@H]2N2CCCC2)c1 |  |  | 3520
17 | CS(=O)(=O)c1ccc(O[C@H]2c3cc(Cl)cc(F)c3C[C@@H]2N2CCCC2)cc1 (racemic) | < 300 | 28.3 | 737
18 | N#Cc1ccc(O[C@H]2c3ccccc3C[C@@H]2N2CCCC2)cc1 |  |  | 4500
19 | c1ccc2c(c1)C[C@H](N1CCCC1)[C@H]2Oc1ccc(-c2nccs2)cc1 |  |  | 1710
20 | N[C@@H]1CCCN([C@H]2Cc3ccccc3[C@@H]2Oc2ccc(S(N)(=O)=O)c(Cl)c2Cl)C1 | < 300 | 0.08 | 650

Row | SMILES | IC50 (Cytochrome P450 2D6) [nM] | Papp at 2 h, 20 µM [1] [×10⁻⁶ cm/s] | IC50 [2] [nM]
21 | Cc1noc(C)c1-c1ccc(O[C@H]2c3ccccc3C[C@@H]2N2CCCC2)cc1 |  |  | 411
22 | CS(=O)(=O)c1ccc(O[C@H]2c3cc(Cl)cc(Cl)c3C[C@@H]2N2CC[C@@H](F)C2)cc1 |  |  | 166
23 | CS(=O)(=O)c1ccc(O[C@H]2c3cc(Cl)ccc3C[C@@H]2N2CCNCC2)cc1 (racemic) |  |  | 540
24 | CS(=O)(=O)c1ccc(O[C@H]2c3c(Cl)cc(Cl)cc3C[C@@H]2N2CCNCC2)cc1 |  |  | 135
25 | Cc1nncn1-c1ccc(O[C@H]2c3ccccc3C[C@@H]2N2CCCC2)cc1 |  |  | 640
26 | O=S1(=O)CCCN1c1cccc(O[C@H]2c3ccccc3C[C@@H]2N2CCCC2)c1 |  |  | 1530
27 | CC(=O)Nc1cccc(O[C@H]2c3ccccc3C[C@@H]2N2CCCC2)c1 | 640 | 9.1 | 438
28 | O=C1OCCN1c1cccc(O[C@H]2c3ccccc3C[C@@H]2N2CCCC2)c1 |  |  | 955
29 | Cn1ccn(-c2cccc(O[C@H]3c4ccccc4C[C@@H]3N3CCCC3)c2)c1=O | < 300 | 9.8 | 197
30 | O=C1CCC(=O)N1c1cccc(O[C@H]2c3ccccc3C[C@@H]2N2CCCC2)c1 |  |  | 2960
31 | O=C1OCc2cc(O[C@H]3c4ccccc4C[C@@H]3N3CCCC3)ccc21 |  |  | 2440
32 | CS(=O)(=O)c1ccc(O[C@H]2c3cc(Cl)cc(F)c3C[C@@H]2N2CCNCC2)cc1 (racemic) |  |  | 168
33 | CC(=O)Nc1cc(O[C@H]2c3ccccc3C[C@@H]2N2CCCC2)ccn1 |  |  | 4530
34 | O=c1[nH]ccn1-c1cccc(O[C@H]2c3ccccc3C[C@@H]2N2CCCC2)c1 | 3800 | 9.8 | 281
35 | NC(=O)Nc1cccc(O[C@H]2c3ccccc3C[C@@H]2N2CCC[C@@H](N)C2)c1 | 8600 | 0.04 | 330
36 | Cc1nnc(C2CC2)n1-c1ccc(O[C@H]2c3ccccc3C[C@@H]2N2CCCC2)cc1 |  |  | 272
37 | CC(=O)Nc1ccc(O[C@H]2c3ccccc3C[C@@H]2N2CCCC2)cc1 |  |  | 2770
38 | c1ccc2c(c1)C[C@H](N1CCCC1)[C@H]2Oc1cccc2cccnc12 |  |  | 9520
39 | NS(=O)(=O)c1ccc(O[C@H]2c3ccccc3C[C@@H]2N2CCCC2)cc1 |  |  | 500

Now those with a lower IC50 [2], led by results:

Row | IC50 (Cytochrome P450 2D6) [nM] | Papp at 2 h, 20 µM [1] [×10⁻⁶ cm/s] | IC50 [2] [nM] | SMILES
40 |  |  | 123 | CS(=O)(=O)c1ccc(O[C@H]2c3cc(F)cc(Cl)c3C[C@@H]2N2CCNCC2)cc1 (racemic)
41 | 400 | 13.2 | 123 | NS(=O)(=O)c1ccc(O[C@H]2c3ccccc3C[C@@H]2N2CCCC2)c(Cl)c1Cl
42 |  |  | 118 | Cc1nnc(C)n1-c1ccc(O[C@H]2c3ccccc3C[C@@H]2N2CCCC2)c(C(F)(F)F)c1
43 | 2500 | 16.2 | 94 | Cc1nnc(C)n1-c1ccc(O[C@H]2c3cc(Cl)ccc3C[C@@H]2N2CCCC2)c(Cl)c1
44 | < 300 | 6.4 | 93 | CN1CCCN([C@H]2Cc3c(Cl)cc(Cl)cc3[C@@H]2Oc2ccc(S(C)(=O)=O)cc2)CC1
45 | 9500 | 0.5 | 90 | Cc1nnc(C)n1-c1ccc(O[C@H]2c3cc(Cl)ccc3C[C@@H]2N2CC[C@@H](O)C2)c(Cl)c1
46 | 730 | 6.7 | 78 | Cc1nnc(C)n1-c1ccc(O[C@H]2c3ccccc3C[C@@H]2N2CCCC2)c(Cl)c1
47 | < 300 | 11 | 64 | COCCN1CCCN([C@H]2Cc3c(Cl)cc(Cl)cc3[C@@H]2Oc2ccc(S(C)(=O)=O)cc2)CC1
48 | < 300 | 10.5 | 56 | CS(=O)(=O)c1ccc(O[C@H]2c3cc(Cl)cc(Cl)c3C[C@@H]2N2CCC[C@@H](NCCF)C2)cc1
49 |  |  | 48 | CN(C)CCCN(C)[C@H]1Cc2c(Cl)cc(Cl)cc2[C@@H]1Oc1ccc(S(C)(=O)=O)cc1
50 |  |  | 43 | CS(=O)(=O)c1ccc(O[C@H]2c3c(ccc(Cl)c3Cl)C[C@@H]2N2CCCNCC2)cc1
51 |  |  | 30 | CS(=O)(=O)c1ccc(O[C@H]2c3cc(Cl)cc(Cl)c3C[C@@H]2N2CCCN(CCO)CC2)cc1
52 | < 300 | 2.4 | 30 | N[C@@H]1CCCN([C@H]2Cc3c(Cl)cc(Cl)cc3[C@@H]2Oc2ccc(-n3cncn3)cc2)C1
53 | 900 | 0.07 | 28 | CS(=O)(=O)c1ccc(OC2c3cc(Cl)cc(Cl)c3CC2N2C[C@H]3CNC[C@H]3C2)cc1 (single isomer, unassigned)
54 | < 300 | 1.1 | 23 | N[C@@H]1CCCN([C@H]2Cc3c(Cl)cc(Cl)cc3[C@@H]2Oc2ccc(-n3ccnc3)cc2)C1
55 | < 300 | 3 | 22 | CS(=O)(=O)c1ccc(O[C@H]2c3cc(Cl)cc(Cl)c3C[C@@H]2N2CCNCC2)cc1
56 | < 300 | 8 | 20 | CN(C)CCN(C)[C@H]1Cc2c(Cl)cc(Cl)cc2[C@@H]1Oc1ccc(S(C)(=O)=O)cc1
57 |  | 5.1 | 20 | C[C@@H]1CN([C@H]2Cc3c(Cl)cc(Cl)cc3[C@@H]2Oc2ccc(S(C)(=O)=O)cc2)CCN1
58 |  |  | 11 | CS(=O)(=O)c1ccc(O[C@H]2c3cc(Cl)cc(Cl)c3C[C@@H]2N2CCC3(CCNC3)C2)cc1 (stereo partly drawn)
59 | < 300 | 1.6 | 6 | CS(=O)(=O)c1ccc(O[C@H]2c3cc(Cl)cc(Cl)c3C[C@@H]2N2CCCNCC2)cc1
60 |  |  | 4 | CS(=O)(=O)c1ccc(O[C@H]2c3cc(Cl)cc(Cl)c3C[C@@H]2N2CCC[C@@H](N)C2)cc1
61 |  |  | 4 | CS(=O)(=O)c1ccc(O[C@H]2c3cc(Cl)cc(Cl)c3C[C@@H]2N2CCC[C@@H](NCCO)C2)cc1
62 |  |  | 2 | CS(=O)(=O)c1ccc(O[C@H]2c3cc(Cl)cc(Cl)c3C[C@@H]2N2CCCNCC2)c(Cl)c1
63 | 1500 | 0.6 | 0.2 | N[C@@H]1CCCN([C@H]2Cc3c(Cl)cc(Cl)cc3[C@@H]2Oc2ccc(S(N)(=O)=O)c(Cl)c2Cl)C1
